{
  "source": "paper PMC8868297",
  "about": "“Stapling of Peptides Potentiates the Antibiotic Treatment of Acinetobacter baumannii In Vivo” (Antibiotics, 2022)",
  "key": {"[1]": {"system": "A. baumannii 1757", "assay": "MIC / checkerboard synergy assay (also with added LPS)", "assay_type": "cell-based, Acinetobacter baumannii", "method": "(§1) Minimum inhibitory concentrations of the peptides and antibiotics were determined according to the protocol described by Wiegand et al.. Briefly, two-fold dilution series of cationic peptides in 50 µL volume of LB broth containing 2% DMSO were made in polypropylene 96-well microtiter plates (Ratiolab, L6018123, Dreieich, Germany). The optical density at 600 nm (OD600) of growing bacterial cultures was followed, and at mid-log-phase (OD600 ~0.4–0.5) cultures were diluted to OD600 0.02 and 50 µL was added to the wells, resulting in a total volume of 100 µl, an OD600 of ~0.01 and a DMSO concentration of 1%. An OD600 of ~0.01 accounted for approximately 3 × 10^8 colony forming units per mL (CFU/mL) for A. baumannii, 1 × 10^7 CFU/mL for E. coli and 5 × 10^7 CFU/mL for K. pneumoniae as determined by plate counting.\n(§2) In a similar manner, two-fold dilution series of antibiotics were made in polystyrene microtiter plates (Costar, REF3779, Corning NY, United States) in 70 µL volume of LB broth. Then, 50 µL of the antibiotic series was transferred to the peptide containing polypropylene plate, resulting in a checkerboard titration of a peptide on the vertical axis and an antibiotic on the horizontal axis. To some checkerboard assays 15 µg/mL isolated smooth (sm) LPS (from E. coli O55:B5, Sigma-Aldrich, L2880), rough (Ra) LPS (from E. coli EH100, Sigma-Aldrich, L9641) or deep rough (Rd) LPS (from E. coli F583, Sigma-Aldrich, L6893) LPS was added to the LB broth. Mid-log phase cultures were diluted to OD600 0.1 and 10 µL culture was added to each well of the microtiter plate, resulting in a total volume of 110 µL and an OD600 of ~0.01 (~3 × 10^8 CFU/mL), and the OD600 was measured every 15 min for 12 h using the microplate reader. First, the MIC values of the antibiotics alone and the MIC values of the peptides alone were determined as described previously. Similarly, the MIC values of the antibiotics in combination with the different peptides and the MIC values of the peptides in combination with the antibiotics were determined (the fractional inhibitory concentrations (FIC)). […] An FICindex between 0.5 and 1 was considered to be an additive effect."}, "[2]": {"system": "zebrafish larvae", "assay": "Toxicity in zebrafish larvae (survival after caudal vein injection)", "settings": "survival of uninfected larvae vs vehicle (50% DMSO), five days", "quoted_text": "Transparent Casper zebrafish (Danio rerio) larvae were infected and treated according to protocols described by Van der Sar et al. and Bernard et al. [43, 44]. In short, zebrafish larvae collected from a laboratory-breeding colony kept at 24 °C and a 12:12 h dark/light regime. Larvae were selected based on morphology according to hours post fertilization (hpf) and kept at 28 °C. All protocols followed the international guidelines on the protection of animals used for scientific purposes specified by the EU Directive 2010/63/EU, which allows zebrafish larvae to be used up to the moment of free-living (5–7 dpf). Larvae were dechorionated at 28 hpf and anaesthetized in 0.2% tricaine methanesulfonate (MS222, Fluka A-5040). Larvae were individually infected with 1 nL, containing approximately 100–150 CFU (1–1.5 CFU/mL), of Gram-negative bacteria via microinjection of the caudal vein as described previously [33]. One hour post infection, larvae were treated with cationic (stapled) peptides, antibiotics or a combination of the two via another microinjection of 1 nL in the caudal vein. To correct dilution of the treatment upon injection in the vein (1 nL in 250 nL zebrafish larvae volume), treatments were diluted in 0.1% phenol red (Sigma-Aldrich, p-0290) in phosphate buffered saline (PBS) to 250 times the concentration as tested in vitro. Zebrafish larvae were kept at 30 °C throughout the experiment and survival of the larvae, based on heartbeat, was determined every 24 h for 5 days."}, "[3]": {"system": "K. pneumoniae 613", "assay": "MIC / checkerboard synergy assay", "assay_type": "cell-based, Klebsiella pneumoniae", "settings": "Klebsiella pneumoniae, 613, 12 h; read-out: MIC (compound alone)", "method": "as §1, §2"}, "[4]": {"system": "K. pneumoniae 94", "assay": "MIC / checkerboard synergy assay", "assay_type": "cell-based, Klebsiella pneumoniae", "settings": "Klebsiella pneumoniae, 94, 12 h; read-out: MIC (compound alone)", "method": "as §1, §2"}, "[5]": {"system": "K. pneumoniae 821", "assay": "MIC / checkerboard synergy assay", "assay_type": "cell-based, Klebsiella pneumoniae", "settings": "Klebsiella pneumoniae, 821, 12 h; read-out: MIC (compound alone)", "method": "as §1, §2"}, "[6]": {"system": "E. coli gsk12", "assay": "MIC / checkerboard synergy assay", "assay_type": "cell-based, Escherichia coli", "method": "as §1\n(§3) In a similar manner, two-fold dilution series of antibiotics were made in polystyrene microtiter plates (Costar, REF3779, Corning NY, United States) in 70 µL volume of LB broth. […] Mid-log phase cultures were diluted to OD600 0.1 and 10 µL culture was added to each well of the microtiter plate, resulting in a total volume of 110 µL and an OD600 of ~0.01 (~3 × 10^8 CFU/mL), and the OD600 was measured every 15 min for 12 h using the microplate reader. First, the MIC values of the antibiotics alone and the MIC values of the peptides alone were determined as described previously. […]"}, "[7]": {"system": "E. coli 31", "assay": "MIC / checkerboard synergy assay", "assay_type": "cell-based", "settings": "Escherichia coli, 31, 12 h; read-out: MIC (compound alone)", "method": "as §1, §3"}, "[8]": {"system": "A. baumannii 1681", "assay": "MIC / checkerboard synergy assay", "assay_type": "cell-based, Acinetobacter baumannii", "settings": "Acinetobacter baumannii, 1681, 12 h; read-out: MIC (compound alone)", "method": "as §1, §2"}, "[9]": {"system": "A. baumannii 2196", "assay": "MIC / checkerboard synergy assay", "assay_type": "cell-based, Acinetobacter baumannii", "settings": "Acinetobacter baumannii, 2196, 12 h; read-out: MIC (compound alone)", "method": "as §1, §2"}, "[10]": {"system": "A. baumannii 1757", "assay": "Zebrafish larvae infection model", "settings": "rifampicin / erythromycin experiment (Table S8); infected larvae, caudal vein injection, five days post infection; mean of three independent experiments", "quoted_text": "Transparent Casper zebrafish (Danio rerio) larvae were infected and treated according to protocols described by Van der Sar et al. and Bernard et al. [43, 44]. In short, zebrafish larvae collected from a laboratory-breeding colony kept at 24 °C and a 12:12 h dark/light regime. Larvae were selected based on morphology according to hours post fertilization (hpf) and kept at 28 °C. All protocols followed the international guidelines on the protection of animals used for scientific purposes specified by the EU Directive 2010/63/EU, which allows zebrafish larvae to be used up to the moment of free-living (5–7 dpf). Larvae were dechorionated at 28 hpf and anaesthetized in 0.2% tricaine methanesulfonate (MS222, Fluka A-5040). Larvae were individually infected with 1 nL, containing approximately 100–150 CFU (1–1.5 CFU/mL), of Gram-negative bacteria via microinjection of the caudal vein as described previously [33]. One hour post infection, larvae were treated with cationic (stapled) peptides, antibiotics or a combination of the two via another microinjection of 1 nL in the caudal vein. […] Zebrafish larvae were kept at 30 °C throughout the experiment and survival of the larvae, based on heartbeat, was determined every 24 h for 5 days."}},
  "note": "Like-named read-outs stand apart in the source and are kept apart here.",
  "data": [
    {"smiles": "CN[C@H](CC(C)C)C(=O)N[C@H]1C(=O)N[C@@H](CC(N)=O)C(=O)N[C@H]2C(=O)N[C@H]3C(=O)N[C@H](C(=O)N[C@H](C(=O)O)c4cc(O)cc(O)c4-c4cc3ccc4O)[C@H](O)c3ccc(c(Cl)c3)Oc3cc2cc(c3O[C@@H]2O[C@H](CO)[C@@H](O)[C@H](O)[C@H]2O[C@H]2C[C@](C)(N)[C@H](O)[C@H](C)O2)Oc2ccc(cc2Cl)[C@H]1O", "note": "[Vancomycin, vancomycin]", "values": [
      {"measurement": "MIC", "setting": "[1]; Acinetobacter baumannii, 1757, 12 h, read-out: MIC (compound alone)", "result": "5.98 ± 4.55", "unit": "µM"},
      {"measurement": "MIC", "setting": "[1]; Acinetobacter baumannii, 1757, LB medium with soluble deep rough LPS 15 µg/ml, mean ± SD, read-out: MIC, + Rd-LPS (F583)", "result": "5.66 ± 4.15", "unit": "µM"},
      {"measurement": "MIC", "setting": "[1]; Acinetobacter baumannii, 1757, LB medium with soluble rough LPS 15 µg/ml, mean ± SD, read-out: MIC, + Ra-LPS (EH100)", "result": "9.86 ± 7.36", "unit": "µM"},
      {"measurement": "MIC", "setting": "[1]; Acinetobacter baumannii, 1757, LB medium with soluble smooth LPS 15 µg/ml, mean ± SD, read-out: MIC, + Sm-LPS (055:B5)", "result": "5.88 ± 3.56", "unit": "µM"},
      {"measurement": "MIC", "setting": "[1]; Acinetobacter baumannii, 1757, LB medium without supplement (Table S4), mean ± SD, read-out: MIC, No supplement", "result": "3.03 ± 2.52", "unit": "µM"},
      {"measurement": "Log2FoldChange compared to vehicle injected", "setting": "[2]", "result": -0.26},
      {"measurement": "MIC", "setting": "[3]", "result": "269 ± 140", "unit": "µM"},
      {"measurement": "MIC", "setting": "[4]", "result": "263 ± 180", "unit": "µM"},
      {"measurement": "MIC", "setting": "[5]", "result": "197 ± 194", "unit": "µM"},
      {"measurement": "MIC", "setting": "[6]; Escherichia coli, GSK12, 12 h, read-out: MIC (compound alone)", "result": "78.7 ± 5.3", "unit": "µM"},
      {"measurement": "MIC (compound alone)", "setting": "[6]; compound alone, LB broth, MIC = 90% of growth prevented, OD600 over 12 h, mean ± SD", "result": "78.65 ± 5.3", "unit": "µM"},
      {"measurement": "MIC", "setting": "[7]", "result": "24.5 ± 8.81", "unit": "µM"},
      {"measurement": "MIC", "setting": "[8]", "result": "19 ± 4.56", "unit": "µM"},
      {"measurement": "MIC", "setting": "[9]", "result": "34.7 ± 24", "unit": "µM"}
    ]},
    {"smiles": "CC[C@H]1OC(=O)[C@H](C)[C@@H](O[C@H]2C[C@@](C)(OC)[C@@H](O)[C@H](C)O2)[C@H](C)[C@@H](O[C@@H]2O[C@H](C)C[C@H](N(C)C)[C@H]2O)[C@](C)(O)C[C@@H](C)C(=O)[C@H](C)[C@@H](O)[C@]1(C)O", "note": "[Erythromycin, erythromycin]", "values": [
      {"measurement": "Survival (%)", "setting": "[10]", "result": 0.01, "unit": "%"}
    ]}
  ]
}
